# Data published in patent US10233157B2, “SIK inhibitor for use in a method of treating an inflammatory and/or immune disorder” (Dana-Farber Cancer Institute, Inc., priority 2012, dated 2019).
# What was measured:
# STAT3 = assay: Immunoblotting of STAT3 phosphorylation in LPS-stimulated macrophages; assay type: cell-based, mouse
# Method: (§1) FIGS. 2A to 2G. […] As in A except that cells were stimulated for 2 h with LPS.
# (§2) Bone-marrow derived macrophages were differentiated for 7 days in DMEM supplemented with 5 ng/ml recombinant M-CSF (R&D systems), 2 mM glutamine, 10% foetal calf serum, penicillin and streptomycin.
# (§3) Cells were rinsed in ice-cold PBS and extracted in lysis buffer (50 mM Tris/HCl pH 7.4, 1 mM EDTA, 1 mM EGTA, 50 mM NaF, 5 mM sodium pyrophosphate, 10 mM sodium α-glycerol 1-phosphate, 1 mM dithiothreitol, 1 mM sodium orthovanadate, 0.27 M sucrose, 1% (v/v) Triton X-100, 1 μg/ml aprotinin, 1 μg/ml leupeptin and 1 mM phenylmethylsulphonyl fluoride). Cell extracts were clarified by centrifugation at 14000×g for 10 min at 4° C. and protein concentrations determined using the Bradford assay. To detect proteins in cell lysates, 20 μg of protein extract was separated by SDS-PAGE. After transfer to PVDF membranes, proteins were detected by immunoblotting and visualized by treating the blots with ECL (Amersham) followed by autoradiography. The antibody recognizing CREB phosphorylated at Ser133 was from Cell Signalling Technology and the one detecting α-tubulin was obtained from Sigma.
# CREB = assay: Immunoblotting of CREB phosphorylation in LPS-stimulated macrophages; assay type: cell-based, mouse
# Method: Bone-marrow derived macrophages were differentiated for 7 days in DMEM supplemented with 5 ng/ml recombinant M-CSF (R&D systems), 2 mM glutamine, 10% foetal calf serum, penicillin and streptomycin. […]
# as §3
# IL-10−/− macrophages = assay: Cytokine production in IL-10−/− macrophages; assay type: cell-based, mouse; details: all TLR ligands examined other than LPS
# Method: as §1
# IL-10^−/− mice on a C57Bl/6 background were purchased from The Jackson Laboratory, Maine, USA. C57Bl/6, and IL-10^−/− mice were bred at the University of Dundee under specific pathogen-free conditions in accordance with European Union regulations. Work was approved by local ethical review and was performed with a UK Home Office project license.
# as §2
# Following stimulation with ligands, the cell culture medium was removed, clarified by centrifugation for 10 min at 14000×g and the concentration of TNFα, IL-6, IL-10, IL-12p40, and RANTES were measured using the Bio-Plex Pro Assay system from Bio-Rad. IFNβ was measured using an ELISA kit from R&D Systems according to the manufacturers' instructions.
# CRTC3 = CRTC3 nuclear translocation (immunofluorescence, live imaging); assay type: cell-based; details: WT CRTC3
# Source text: FIGS. 15A to 15C. SIK inhibitors induce the dephosphorylation of CRTC3 at Ser62, Ser162, Ser329 and Ser370 and its translocation to the nucleus. (FIG. 15A) HEK293 cells were transfected with FLAG-CRTC2, FLAG-CRTC3 or FLG-CRTC3[S162A]. Aliquots of the cell extracts were subjected to SDS-PAGE and immunoblotting using an antibody that recognizes CRTC2 phosphorylated at Ser171. […] (FIG. 15B) HEK293 cells were transfected with FLAG-CRTC3, FLAG-CRTC3[S62A/S162A/S329A/S370A] (termed CRTC3-4A) or with empty vector (FLAG-ev). […]. (FIG. 15C) Inhibition of SIKs promotes the translocation of endogenous CRTC3 to the nucleus. […].
# RAW264.7 cells were grown on glass coverslips and treated with inhibitors for 1 h. Cells were then fixed for 10 min in 3.7% paraformaldehyde, permeabilized for 5 min using 0.1% Triton X-100 in PBS and blocked for 45 min using 3% BSA in PBS. Cells were stained with anti-CRTC3 (Abcam 1:200) and anti-α-tubulin (Santa Cruz 1:500) followed by anti-rabbit-alexa488 and anti-mouse-alexa594 (Invitrogen 1:500), respectively. Antibodies were diluted in blocking buffer and incubated with the cells for 45 min. […] Images were recorded every 30 s for 1.5 min prior to the addition of drug after which cells were imaged for a further 60 min.
SMILES,LPS-stimulated phosphorylation of STAT3 (STAT3; 2 μM MRT67307),"phosphorylation of STAT3 (STAT3; LPS-stimulated macrophages from IL-10−/− mice, presence or absence of compound)",phosphorylation of CREB at Ser133 induced by LPS (CREB),secretion of pro-inflammatory cytokines (IL-10−/− macrophages),CRTC3 nuclear translocation (CRTC3)
O=C(NCCCNc1nc(Nc2cccc(CN3CCOCC3)c2)ncc1C1CC1)C1CCC1 [MRT67307],increased,no phosphorylation of STAT3 occurred,little effect,failed to suppress,–
"COc1ccc(N(C(=O)Nc2c(C)cccc2C)c2cc(Nc3ccc(N4CCN(C)CC4)cc3)ncn2)c(OC)c1 [HG-9-91-01, 1-(2,4-dimethoxyphenyl)-3-(2,6-dimethylphenyl)-1-(6-((4-(4-methylpiperazin-1-yl)phenyl)amino)pyrimidin-4-yl)urea]",–,–,–,–,translocates to the nucleus
